{
  "source": "the supplement of paper PMC10307832",
  "data": [
    {"compound": "CC(C)N(CCCNC(=O)Nc1ccc(C(C)(C)C)cc1)C[C@H]1O[C@@H](n2ccc3c(N)ncnc32)[C@H](O)[C@@H]1O + Cc1nc(NC(=O)N2CCC[C@H]2C(N)=O)sc1-c1ccnc(C(C)(C)C(F)(F)F)c1 [Alpelisib] (partner 2 µM)", "assay": "relative viability (nuclei count vs DMSO), 5 days (fraction); higher = more cells survive", "settings": "first compound 0.08 µM", "summary_of_the_method": "(§1)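 The day after seeding in 1536-well plates, lung cancer cell lines were treated by pin tool with a single drug, or with a fixed anchor-drug dose together with five library-drug doses (not always all listed) in √10 steps. After 5 days, a combined fix-and-stain solution (final 0.05% Triton X-100, 1% formaldehyde, 1 ug/ml Hoechst) was added. Nuclei counted on 4× images gave relative viability as treated counts over vehicle counts, reported as the median of duplicate plates.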", "values": [
      {"cell line": "HCC-78", "relative viability": 0.272},
      {"cell line": "LCLC-97TM1", "relative viability": 0.251},
      {"cell line": "A-427", "relative viability": 1.08},
      {"cell line": "NCI-H460", "relative viability": 0.378},
      {"cell line": "NCI-H838", "relative viability": 0.983},
      {"cell line": "NCI-H1734", "relative viability": 0.665},
      {"cell line": "NCI-H596", "relative viability": 0.567},
      {"cell line": "NCI-H2405", "relative viability": 0.858},
      {"cell line": "NCI-H1395", "relative viability": 1.11},
      {"cell line": "201T", "relative viability": 1},
      {"cell line": "NCI-H1915", "relative viability": 1.07},
      {"cell line": "HCC-827", "relative viability": 0.922},
      {"cell line": "LXF-289", "relative viability": 1.01},
      {"cell line": "NCI-H2347", "relative viability": 0.882},
      {"cell line": "CAL-12T", "relative viability": 1.02},
      {"cell line": "NCI-H1651", "relative viability": 0.882},
      {"cell line": "EPLC-272H", "relative viability": 0.95},
      {"cell line": "NCI-H23", "relative viability": 0.687},
      {"cell line": "NCI-H1355", "relative viability": 0.768},
      {"cell line": "NCI-H322M", "relative viability": 0.732},
      {"cell line": "NCI-H1437", "relative viability": 0.9},
      {"cell line": "NCI-H1755", "relative viability": 0.891},
      {"cell line": "NCI-H2085", "relative viability": 0.969},
      {"cell line": "HCC-15", "relative viability": 0.79}
    ]},
    {"compound": "CC(C)N(CCCNC(=O)Nc1ccc(C(C)(C)C)cc1)C[C@H]1O[C@@H](n2ccc3c(N)ncnc32)[C@H](O)[C@@H]1O + Cc1nc(NC(=O)N2CCC[C@H]2C(N)=O)sc1-c1ccnc(C(C)(C)C(F)(F)F)c1 [Alpelisib] (partner 2 µM)", "assay": "relative viability (nuclei count vs DMSO), 5 days (fraction); higher = more cells survive", "settings": "first compound 0.253 µM", "summary_of_the_method": "as §1", "values": [
      {"cell line": "NCI-H2170", "relative viability": 0.762},
      {"cell line": "NCI-H3122", "relative viability": 0.846},
      {"cell line": "HOP-62", "relative viability": 1.16},
      {"cell line": "LU99A", "relative viability": 0.445},
      {"cell line": "BEN", "relative viability": 0.93},
      {"cell line": "HARA", "relative viability": 0.744},
      {"cell line": "HCC-78", "relative viability": 0.289},
      {"cell line": "NCI-H441", "relative viability": 0.653},
      {"cell line": "A-427", "relative viability": 1.03},
      {"cell line": "NCI-H460", "relative viability": 0.582},
      {"cell line": "NCI-H838", "relative viability": 0.804},
      {"cell line": "NCI-H1734", "relative viability": 0.665},
      {"cell line": "NCI-H596", "relative viability": 0.42},
      {"cell line": "NCI-H1395", "relative viability": 0.996},
      {"cell line": "201T", "relative viability": 1.03},
      {"cell line": "NCI-H1915", "relative viability": 1.05},
      {"cell line": "HCC-827", "relative viability": 0.938},
      {"cell line": "LXF-289", "relative viability": 1.05},
      {"cell line": "NCI-H2347", "relative viability": 0.904},
      {"cell line": "CAL-12T", "relative viability": 1.32},
      {"cell line": "NCI-H1651", "relative viability": 0.98},
      {"cell line": "EPLC-272H", "relative viability": 0.912},
      {"cell line": "NCI-H1355", "relative viability": 0.809},
      {"cell line": "NCI-H322M", "relative viability": 0.775},
      {"cell line": "NCI-H1437", "relative viability": 1.01},
      {"cell line": "NCI-H1755", "relative viability": 0.929},
      {"cell line": "NCI-H2085", "relative viability": 0.978},
      {"cell line": "HCC-15", "relative viability": 0.863}
    ]},
    {"compound": "CC(C)N(CCCNC(=O)Nc1ccc(C(C)(C)C)cc1)C[C@H]1O[C@@H](n2ccc3c(N)ncnc32)[C@H](O)[C@@H]1O + Cc1nc(NC(=O)N2CCC[C@H]2C(N)=O)sc1-c1ccnc(C(C)(C)C(F)(F)F)c1 [Alpelisib] (partner 2 µM)", "assay": "relative viability (nuclei count vs DMSO), 5 days (fraction); higher = more cells survive", "settings": "first compound 0.8 µM", "summary_of_the_method": "as §1", "values": [
      {"cell line": "NCI-H2170", "relative viability": 0.82},
      {"cell line": "NCI-H3122", "relative viability": 0.797},
      {"cell line": "HOP-62", "relative viability": 0.912},
      {"cell line": "LU99A", "relative viability": 0.54},
      {"cell line": "BEN", "relative viability": 0.953},
      {"cell line": "HARA", "relative viability": 0.763},
      {"cell line": "HCC-78", "relative viability": 0.323},
      {"cell line": "NCI-H441", "relative viability": 0.88},
      {"cell line": "LCLC-97TM1", "relative viability": 0.267},
      {"cell line": "A-427", "relative viability": 1.11},
      {"cell line": "NCI-H460", "relative viability": 0.442},
      {"cell line": "NCI-H838", "relative viability": 1.04},
      {"cell line": "NCI-H1734", "relative viability": 0.636},
      {"cell line": "NCI-H596", "relative viability": 0.54},
      {"cell line": "NCI-H2405", "relative viability": 0.789},
      {"cell line": "201T", "relative viability": 1.02},
      {"cell line": "NCI-H1915", "relative viability": 0.974},
      {"cell line": "LXF-289", "relative viability": 1.07},
      {"cell line": "NCI-H2347", "relative viability": 0.935},
      {"cell line": "CAL-12T", "relative viability": 1.26},
      {"cell line": "NCI-H1651", "relative viability": 0.92},
      {"cell line": "EPLC-272H", "relative viability": 0.856},
      {"cell line": "NCI-H23", "relative viability": 0.695},
      {"cell line": "NCI-H322M", "relative viability": 0.766},
      {"cell line": "NCI-H1437", "relative viability": 1.1},
      {"cell line": "NCI-H1755", "relative viability": 0.905},
      {"cell line": "NCI-H2085", "relative viability": 1.05},
      {"cell line": "HCC-15", "relative viability": 0.891}
    ]},
    {"compound": "CC(C)N(CCCNC(=O)Nc1ccc(C(C)(C)C)cc1)C[C@H]1O[C@@H](n2ccc3c(N)ncnc32)[C@H](O)[C@@H]1O + Cc1nc(NC(=O)N2CCC[C@H]2C(N)=O)sc1-c1ccnc(C(C)(C)C(F)(F)F)c1 [Alpelisib] (partner 2 µM)", "assay": "relative viability (nuclei count vs DMSO), 5 days (fraction); higher = more cells survive", "settings": "first compound 2.53 µM", "summary_of_the_method": "as §1", "values": [
      {"cell line": "NCI-H2170", "relative viability": 0.815},
      {"cell line": "NCI-H3122", "relative viability": 0.858},
      {"cell line": "HOP-62", "relative viability": 0.971},
      {"cell line": "LU99A", "relative viability": 0.555},
      {"cell line": "BEN", "relative viability": 0.913},
      {"cell line": "HARA", "relative viability": 0.701},
      {"cell line": "HCC-78", "relative viability": 0.334},
      {"cell line": "NCI-H441", "relative viability": 0.677},
      {"cell line": "LCLC-97TM1", "relative viability": 0.174},
      {"cell line": "A-427", "relative viability": 1.1},
      {"cell line": "NCI-H460", "relative viability": 0.301},
      {"cell line": "NCI-H838", "relative viability": 1.03},
      {"cell line": "NCI-H1734", "relative viability": 0.723},
      {"cell line": "NCI-H596", "relative viability": 0.434},
      {"cell line": "NCI-H2405", "relative viability": 0.89},
      {"cell line": "NCI-H1395", "relative viability": 1.21},
      {"cell line": "201T", "relative viability": 0.98},
      {"cell line": "NCI-H1915", "relative viability": 1.05},
      {"cell line": "HCC-827", "relative viability": 0.952},
      {"cell line": "LXF-289", "relative viability": 1.09},
      {"cell line": "NCI-H2347", "relative viability": 1.1},
      {"cell line": "CAL-12T", "relative viability": 1},
      {"cell line": "NCI-H1651", "relative viability": 0.935},
      {"cell line": "EPLC-272H", "relative viability": 1.03},
      {"cell line": "NCI-H23", "relative viability": 0.684},
      {"cell line": "NCI-H1355", "relative viability": 0.772},
      {"cell line": "NCI-H322M", "relative viability": 0.829},
      {"cell line": "NCI-H1437", "relative viability": 0.903},
      {"cell line": "NCI-H1755", "relative viability": 0.882},
      {"cell line": "NCI-H2085", "relative viability": 0.972},
      {"cell line": "HCC-15", "relative viability": 0.93}
    ]},
    {"compound": "CC(C)N(CCCNC(=O)Nc1ccc(C(C)(C)C)cc1)C[C@H]1O[C@@H](n2ccc3c(N)ncnc32)[C@H](O)[C@@H]1O + Cc1nc(NC(=O)N2CCC[C@H]2C(N)=O)sc1-c1ccnc(C(C)(C)C(F)(F)F)c1 [Alpelisib] (partner 2 µM)", "assay": "relative viability (nuclei count vs DMSO), 5 days (fraction); higher = more cells survive", "settings": "first compound 8 µM", "summary_of_the_method": "as §1", "values": [
      {"cell line": "NCI-H2170", "relative viability": 0.908},
      {"cell line": "NCI-H3122", "relative viability": 0.701},
      {"cell line": "HOP-62", "relative viability": 0.909},
      {"cell line": "LU99A", "relative viability": 0.503},
      {"cell line": "BEN", "relative viability": 0.989},
      {"cell line": "HARA", "relative viability": 0.779},
      {"cell line": "HCC-78", "relative viability": 0.315},
      {"cell line": "NCI-H441", "relative viability": 0.712},
      {"cell line": "LCLC-97TM1", "relative viability": 0.222},
      {"cell line": "A-427", "relative viability": 1.18},
      {"cell line": "NCI-H460", "relative viability": 0.396},
      {"cell line": "NCI-H838", "relative viability": 0.99},
      {"cell line": "NCI-H1734", "relative viability": 0.713},
      {"cell line": "NCI-H596", "relative viability": 0.482},
      {"cell line": "NCI-H2405", "relative viability": 0.795},
      {"cell line": "NCI-H1395", "relative viability": 1.05},
      {"cell line": "201T", "relative viability": 0.962},
      {"cell line": "NCI-H1915", "relative viability": 0.968},
      {"cell line": "HCC-827", "relative viability": 0.919}
    ]}
  ]
}
